# Source: US20050090399A1, “Phenyl substituted heterocyclic compounds useful as herbicides” (priority 2002, published 2005)
# Assays:
# summer wheat (Lona) = experiment: Pre-emergence herbicidal action, greenhouse pot test: damage to summer wheat; type: in vivo; conditions: 125 g/ha
# Protocol: (§1) Monocotyledonous and dicotyledonous weeds and summer wheat (Lona) are sown in standard soil in plastics pots. Directly after sowing, the test compounds are applied as EC 125 and WP 10 (without additional surface-active compounds). The rate of application is 125 g of active substance per ha. The test plants are then grown on in the greenhouse under optimum conditions. Evaluation is carried out 20 days after application: 100 denotes 100% damage to the plant in question.
# (§2) Test plants: Agrostis (Agr), Alopecurus (Alo), Phalaris (Pha), Lolium (Lol) and Setaria (Set).
# Agrostis (Agr) = experiment: Pre-emergence herbicidal action, greenhouse pot test: Agrostis; type: in vivo; conditions: 125 g/ha
# Protocol: as §1, §2
# Alopecurus (Alo) = experiment: Pre-emergence herbicidal action, greenhouse pot test: Alopecurus; type: in vivo; conditions: 125 g/ha
# Protocol: as §1, §2
# Phalaris (Pha) = experiment: Pre-emergence herbicidal action, greenhouse pot test: Phalaris; type: in vivo; conditions: 125 g/ha
# Protocol: as §1, §2
# Lolium (Lol) = experiment: Pre-emergence herbicidal action, greenhouse pot test: Lolium; type: in vivo; conditions: 125 g/ha
# Protocol: as §1, §2
# Setaria (Set) = experiment: Pre-emergence herbicidal action, greenhouse pot test: Setaria; type: in vivo; conditions: 125 g/ha
# Protocol: as §1, §2
# [1] = applied directly after sowing as WP 10, evaluation 20 days after application
# [2] = applied directly after sowing as EC 125, evaluation 20 days after application
melting point,SMILES,"Herbicidal action (damage to the plant), wheat (summer wheat (Lona); [1])","Herbicidal action (damage to the plant), Agr (Agrostis (Agr); [1])","Herbicidal action (damage to the plant), Alo (Alopecurus (Alo); [1])","Herbicidal action (damage to the plant), Pha (Phalaris (Pha); [1])","Herbicidal action (damage to the plant), Lol (Lolium (Lol); [1])","Herbicidal action (damage to the plant), Set (Setaria (Set); [1])",also measured
106 to 107 °C,CCCCCCCCCCCC(=O)Oc1c(-c2c(CC)cc(C)cc2CC)c(=O)n2n1CCOCC2 [1.01],,,,,,,
91 to 92 °C,CCCCCCCCCCCCCCCC(=O)Oc1c(-c2c(CC)cc(C)cc2CC)c(=O)n2n1CCOCC2 [1.02],,,,,,,
,CCCCCCCC/C=C\CCCCCCCC(=O)Oc1c(-c2c(CC)cc(C)cc2CC)c(=O)n2n1CCOCC2 [compound 1.03],10%,98%,90%,100%,90%,100%,
,CCCCCCCC/C=C\CCCCCCCCC(C)(C)C(=O)Oc1c(-c2c(CC)cc(C)cc2CC)c(=O)n2n1CCOCC2 [compound 1.05b],0%,80%,80%,100%,70%,70%,
,CCCCCCCC/C=C\CCCCCCCCC(C)C(=O)Oc1c(-c2c(CC)cc(C)cc2CC)c(=O)n2n1CCOCC2 (centres unmarked) [compound 1.12b],10%,95%,90%,100%,80%,90%,
,"CCc1cc(C)cc(CC)c1C1C(=O)N2CCOCCN2C1=O [compound A, 8-(2,6-diethyl-4-methyl-phenyl)-tetrahydropyrazolo[1,2-d][1,4,5]oxadiazepine-7,9-dione, reference compound]",,,,,,,"Herbicidal action (damage to the plant), wheat (summer wheat (Lona); [2]): 20%; Herbicidal action (damage to the plant), Agr (Agrostis (Agr); [2]): 95%; Herbicidal action (damage to the plant), Alo (Alopecurus (Alo); [2]): 100%; Herbicidal action (damage to the plant), Pha (Phalaris (Pha); [2]): 100%; Herbicidal action (damage to the plant), Lol (Lolium (Lol); [2]): 98%; Herbicidal action (damage to the plant), Set (Setaria (Set); [2]): 100%"
